# Results reported in patent US10653688B2, “6-(6-membered heteroaryl and aryl)isoquinolin-3-yl carboxamides and preparation and use thereof” (Samumed, LLC, priority 2017, dated 2020).
# pEC50: −log10 of the molar value. Read-outs that look alike come from different tables or passages of the source.
# Legend:
# [1] = test system: Wnt activity (SW480 colon carcinoma cells stably expressing the Sp5-Luc reporter gene); assay: Wnt activity screening assay (Sp5-Luc reporter gene assay); assay type: cell-based, human; conditions: Homo sapiens; for pEC50: 36 to 48 hours; for inhibition at 10 µM: read-out: percent inhibition at 10 μM (given for EC50 >10 μM), 10 μM
# How it was run: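 SW480 colon carcinoma cells stably carrying a lentiviral luciferase reporter driven by an Sp5 promoter with eight TCF/LEF sites, plated at 4,000 cells/well in DMEM with 1% FBS. Compound exposure for 36–48 h at 37 °C, then luminescence read. Signals normalized to DMSO; EC50 from four-parameter nonlinear fit.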
# [2] = test system: LL29 cells (primary human fibroblasts derived from IPF patients), α-smooth muscle actin; assay: Inhibition of fibrotic process: TGF-β1-treated primary human fibroblasts, αSMA staining; assay type: cell-based; conditions: Homo sapiens, Fibroblast; for pEC50: 96 h, TGF-β1 20 ng/mL, 4 days, % cells positive for αSMA; for inhibition at 10 µM: read-out: percent inhibition at 10 μM (given for EC50 >10 μM), TGF-β1, αSMA, 10 μM;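 as to all read-outs here: controls were TGF-β1-stimulated wells with DMSO vehicle as the positive reference and cells given DMSO alone as the negative reference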
# Protocol: Representative compounds were screened using primary human fibroblasts (derived from IPF patients) treated with TGF-β1 to determine their ability to inhibit the fibrotic process.
# Human Fibroblast Cell Culture:
# Each compound was dissolved in DMSO as a 10 mM stock and used to prepare compound source plates. […] LL29 cells were plated at 1,500 cells/well in 70 μL/well F12 medium supplemented with 1% Fetal Bovine Serum. […] Wells treated with TGF-β1 and containing DMSO were used as positive control, and cells with only DMSO were negative control. Cells were incubated at 37° C. and 5% CO2 for 4 days. Following incubation for 4 days, SYTOX green nucleic acid stain (Life Technologies [Thermo Fisher Scientific]) was added to the wells at a final concentration of 1 μM and incubated at room temperature for 30 min. Cells were then fixed using 4% formaldehyde (Electron Microscopy Sciences), washed 3 times with PBS followed by blocking and permeabilization using 3% Bovine Serum Albumin (BSA; Sigma) and 0.3% Triton X-100 (Sigma) in PBS.
# [3] = test system: secreted cytokines TNFα, IL-6 and KC-GRO in BV-2 cells (mouse microglial cells); assay: Secreted cytokines in lipopolysaccharide-stimulated mouse glial cell line; assay type: cell-based; conditions: LPS 250 ng/mL 5 hours, table does not say which cytokine
# How it was run: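 BV-2 cells seeded at 35,000/well were pretreated overnight with compound (10 μM to 4.6 nM final), then stimulated 5 h with 250 ng/mL E. coli O111:B4 LPS. Supernatant TNFα, IL-6 and KC-GRO were quantified by electrochemiluminescence against standard curves (pg/mL) to fit EC50. Cytotoxicity was checked by CellTiter-Glo ATP read-out.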
# [4] = test system: IL-6 in human peripheral blood mononuclear cells (huPBMCs); assay: IL-6 inhibition in LPS-stimulated human peripheral blood mononuclear cells (HTRF); assay type: cell-based; conditions: Homo sapiens, PBMC; for pEC50: LPS 50 ng/mL, 22 hours, IL-6 HTRF; for inhibition at 10 µM: read-out: percent inhibition at 10 μM (given for EC50 >10 μM), LPS, IL-6, 10 μM
# How it was run: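 Fresh normal human PBMCs at 1×10e6 cells/mL in RPMI with 1% FBS received compound, then 50 ng/mL E. coli 0111:B4 LPS 2 h later, and were incubated a further 22 h at 37° C. IL-6 read by HTRF (665/620 nm ratio), normalized to DMSO; EC50 from 4-parameter fit.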
# [5] = biological target: recombinant DYRK1A kinase (Homo sapiens (Human), UniProt Q13627); assay: DYRK1A kinase assay (Ser/Thr 18 peptide Z-lyte, FRET)
# [6] = test system: pT212Tau in Dyrk1a- and MAPT-overexpressing HEK293T cells; assay: Tau phosphorylation at Threonine 212 (pT212Tau) sandwich ELISA in double transfected cells; conditions: Homo sapiens, HEK-293T, read-out: Thr212 EC50 (μM)
# [7] = DYRK1A kinase, head says EC50, method says IC50, ATP 30 μM
smiles,measurement,setting,value
"O=C(Nc1cc2cc(-c3cncc(CN4CCC(O)CC4)c3)ccc2cn1)C1CC1 [Compound 53, N-(6-(5-((4-Hydroxypiperidin-1-yl)methyl)pyridin-3-yl)isoquinolin-3-yl) cyclopropanecarboxamide]",pEC50,[1],6.16
same,pEC50,[2],5.51
same,pEC50,[3],7.26
same,pEC50,[4],5.49
same,pEC50,[5],8.70
same,EC50,[6],0.003 µM
"CN1CCN(Cc2cncc(-c3ccc4cnc(NC(=O)C5CC5)cc4c3)c2)CC1 [Compound 56, N-(6-(5-((4-Methylpiperazin-1-yl)methyl)pyridin-3-yl)isoquinolin-3-yl) cyclopropanecarboxamide]",pEC50,[1],5.91
same,pEC50,[2],5.29
same,pEC50,[3],6.75
same,pEC50,[4],5.02
same,pEC50,[5]; [7],8.30
same,EC50,[6],0.045 µM
"O=C(Nc1cc2cc(-c3cncc(CN4CCOCC4)c3)ccc2cn1)C1CC1 [Compound 57, N-(6-(5-(Morpholinomethyl)pyridin-3-yl)isoquinolin-3-yl) cyclopropanecarboxamide]",pEC50,[1],5.95
same,pEC50,[2],5.67
same,pEC50,[3],6.82
same,pEC50,[4],5.42
same,pEC50,[5]; [7],8.40
same,EC50,[6],0.05 µM
"[2H]c1nc([2H])c(-c2ccc3cnc(NC(=O)CN4CCCC4)cc3c2)c([2H])c1[2H] [Compound 60, N-(6-(pyridin-3-yl-d4)isoquinolin-3-yl)-2-(pyrrolidin-1-yl)acetamide]",pEC50,[1],< 5.00
same,inhibition at 10 µM,[1],41.9%
same,pEC50,[2],5.58
same,pEC50,[3],5.49
same,pEC50,[4],5.04
same,pEC50,[5],8.00
same,EC50,[6],0.126 µM
"[2H]c1nc([2H])c(-c2ccc3cnc(NC(=O)CN4CCN(C)CC4)cc3c2)c([2H])c1[2H] [Compound 61, 2-(4-Methylpiperazin-1-yl)-N-(6-(pyridin-3-yl-d4)isoquinolin-3-yl)acetamide]",pEC50,[1],< 5.00
same,inhibition at 10 µM,[1],19.6%
same,pEC50,[2],< 5.00
same,inhibition at 10 µM,[2],4.6%
same,pEC50,[3],7.07
same,pEC50,[4],< 5.00
same,inhibition at 10 µM,[4],26.4%
same,pEC50,[5],7.96
same,EC50,[6],0.121 µM
"[2H]c1nc([2H])c(-c2ccc3cnc(NC(=O)CN4CCOCC4)cc3c2)c([2H])c1[2H] [Compound 62, 2-Morpholino-N-(6-(pyridin-3-yl-d4)isoquinolin-3-yl)acetamide]",pEC50,[1],< 5.00
same,inhibition at 10 µM,[1],18.4%
same,pEC50,[2],< 5.00
same,inhibition at 10 µM,[2],13.2%
same,pEC50,[3],6.51
same,pEC50,[4],< 5.00
same,inhibition at 10 µM,[4],8%
same,pEC50,[5],8.05
same,EC50,[6],0.086 µM
"O=C(CN1CCOCC1)Nc1cc2cc(-c3ccnnc3)ccc2cn1 [Compound 67, 2-morpholino-N-(6-(pyridazin-4-yl)isoquinolin-3-yl)acetamide]",pEC50,[1],< 5.00
same,inhibition at 10 µM,[1],26.5%
same,pEC50,[2],5.99
same,pEC50,[3],6.39
same,pEC50,[4],< 5.00
same,inhibition at 10 µM,[4],6.3%
same,pEC50,[5],7.54
same,EC50,[6],0.206 µM
"O=C(Nc1cc2cc(-c3cnccn3)ccc2cn1)[C@H]1C[C@H](N2CCOCC2)C1 [Compound 69, trans-3-Morpholino-N-(6-(pyrazin-2-yl)isoquinolin-3-yl)cyclobutane-1-carboxamide]",pEC50,[1],< 5.00
same,inhibition at 10 µM,[1],9%
same,pEC50,[2],5.17
same,pEC50,[3],6.12
same,pEC50,[4],< 5.00
same,inhibition at 10 µM,[4],4.4%
same,pEC50,[5],7.70
same,EC50,[6],0.227 µM
"O=C(Nc1cc2cc(-c3cnccn3)ccc2cn1)[C@H]1CC[C@H](N2CCOCC2)CC1 [Compound 71, trans-4-Morpholino-N-(6-(pyrazin-2-yl)isoquinolin-3-yl)cyclohexane-1-carboxamide]",pEC50,[1],< 5.00
same,inhibition at 10 µM,[1],32.1%
same,pEC50,[2],< 5.00
same,inhibition at 10 µM,[2],43.4%
same,pEC50,[3],6.20
same,pEC50,[4],< 5.00
same,inhibition at 10 µM,[4],11%
same,pEC50,[5],7.96
same,EC50,[6],0.019 µM
"O=C(Nc1cc2cc(-c3cnccn3)ccc2cn1)[C@H]1CC[C@H](CN2CC(F)C2)CC1 [Compound 72, trans-4-((3-Fluoroazetidin-1-yl)methyl)-N-(6-(pyrazin-2-yl)isoquinolin-3-yl)cyclohexane-1-carboxamide]",pEC50,[1],< 5.00
same,inhibition at 10 µM,[1],35.7%
same,pEC50,[2],5.74
same,pEC50,[3],5.88
same,pEC50,[4],< 5.00
same,inhibition at 10 µM,[4],10%
same,pEC50,[5],8.15
same,EC50,[6],0.628 µM
"CN1CCN(C[C@H]2CC[C@H](C(=O)Nc3cc4cc(-c5cnccn5)ccc4cn3)CC2)CC1 [Compound 73, trans-4-((4-Methylpiperazin-1-yl)methyl)-N-(6-(pyrazin-2-yl)isoquinolin-3-yl)cyclohexane-1-carboxamide]",pEC50,[1],< 5.00
same,inhibition at 10 µM,[1],33.3%
same,pEC50,[2],< 5.00
same,inhibition at 10 µM,[2],43.1%
same,pEC50,[3],6.16
same,pEC50,[4],6.49
same,pEC50,[5],8.40
same,EC50,[6],0.024 µM
"CN1CCC(C(=O)Nc2cc3cc(-c4cnccn4)ccc3cn2)CC1 [Compound 75, 1-Methyl-N-(6-(pyrazin-2-yl)isoquinolin-3-yl)piperidine-4-carboxamide]",pEC50,[1],< 5.00
same,inhibition at 10 µM,[1],33.7%
same,pEC50,[2],5.86
same,pEC50,[3],6.71
same,pEC50,[4],< 5.00
same,inhibition at 10 µM,[4],27.5%
same,pEC50,[5],8.00
same,EC50,[6],0.089 µM
"O=C(Nc1cc2cc(-c3cnccn3)ccc2cn1)C1CCN(CCF)CC1 [Compound 77, 1-(2-Fluoroethyl)-N-(6-(pyrazin-2-yl)isoquinolin-3-yl)piperidine-4-carboxamide]",pEC50,[1],< 5.00
same,inhibition at 10 µM,[1],36.4%
same,pEC50,[2],5.32
same,pEC50,[3],6.55
same,pEC50,[4],< 5.00
same,inhibition at 10 µM,[4],9.6%
same,pEC50,[5]; [7],7.96
same,EC50,[6],0.062 µM
"CC(C)CN1CCCC(C(=O)Nc2cc3cc(-c4cnccn4)ccc3cn2)CC1 (stereo not shown) [Compound 81, 1-Isobutyl-N-(6-(pyrazin-2-yl)isoquinolin-3-yl)azepane-4-carboxamide]",pEC50,[1],< 5.00
same,inhibition at 10 µM,[1],3.9%
same,pEC50,[2],5.26
same,pEC50,[3],5.83
same,pEC50,[4],< 5.00
same,inhibition at 10 µM,[4],1.6%
same,pEC50,[5]; [7],7.54
same,EC50,[6],0.37 µM
"CC(C)Nc1cncc(-c2ccc3cnc(NC(=O)C4CCN(C)CC4)cc3c2)n1 [Compound 88, N-(6-(6-(Isopropylamino)pyrazin-2-yl)isoquinolin-3-yl)-1-methylpiperidine-4-carboxamide]",pEC50,[1],7.17
same,pEC50,[2],< 5.00
same,inhibition at 10 µM,[2],31.9%
same,pEC50,[3],5.97
same,pEC50,[4],6.40
same,pEC50,[5]; [7],9.00
same,EC50,[6],< 0.003 µM
"O=C(Nc1cc2cc(-c3cncc(NC4CCNCC4)n3)ccc2cn1)C1CCOCC1 [Compound 109, N-(6-(6-(Piperidin-4-ylamino)pyrazin-2-yl)isoquinolin-3-yl)tetrahydro-2H-pyran-4-carboxamide]",pEC50,[1],6.13
same,pEC50,[2],7.57
same,pEC50,[3],6.68
same,pEC50,[4],6.17
same,pEC50,[5]; [7],8.70
same,EC50,[6],0.014 µM
"CN1CCN(c2cc(C(=O)Nc3cc4cc(-c5cnc6ocnc6c5)ccc4cn3)ccn2)CC1 [Compound 132, 2-(4-Methylpiperazin-1-yl)-N-(6-(oxazolo[5,4-b]pyridin-6-yl)isoquinolin-3-yl)isonicotinamide]",pEC50,[1],5.50
same,pEC50,[2],5.87
same,pEC50,[3],5.22
same,pEC50,[4],< 5.00
same,inhibition at 10 µM,[4],8.5%
same,pEC50,[5]; [7],7.85
same,EC50,[6],6.2 µM
"Cc1cc2ncc(-c3ccc4cnc(NC(=O)c5ccnc(N6CCN(C)CC6)c5)cc4c3)cc2[nH]1 [Compound 135, N-(6-(2-Methyl-1H-pyrrolo[3,2-b]pyridin-6-yl)isoquinolin-3-yl)-2-(4-methylpiperazin-1-yl)isonicotinamide]",pEC50,[1],5.59
same,pEC50,[2],5.61
same,pEC50,[3],5.65
same,pEC50,[4],5.68
same,pEC50,[5]; [7],7.82
same,EC50,[6],3.2 µM
"O=C(CN1CCOCC1)Nc1cc2cc(-c3cccnc3)c(F)cc2cn1 [Compound 144, N-(7-Fluoro-6-(pyridin-3-yl)isoquinolin-3-yl)-2-morpholinoacetamide]",pEC50,[1],< 5.00
same,inhibition at 10 µM,[1],23%
same,pEC50,[2],5.34
same,pEC50,[3],6.80
same,pEC50,[4],< 5.00
same,inhibition at 10 µM,[4],9.4%
same,pEC50,[5]; [7],8.05
same,EC50,[6],0.051 µM
